Results from the Biogen ADME set (Fang et al. 2023).
In brackets after ≈: the same amount, converted by molar mass.

Conditions: for aqueous solubility: pH 6.8

| Structure (SMILES) | MDR1-MDCK efflux ratio | intrinsic clearance, human liver microsomes | intrinsic clearance, rat liver microsomes | aqueous solubility | fraction unbound, human plasma | fraction unbound, rat plasma |
| --- | --- | --- | --- | --- | --- | --- |
| CCCC(=O)Nc1ccc(-n2cccn2)nc1 | 0.559 | ≤ 0.284 L/h/kg | 1.91 L/h/kg | 0.0452 mg/mL (≈ 196 µM) |  |  |
| CC(=O)N1CCc2cc(Nc3nccc(C(F)(F)F)n3)ccc21 |  | 7.82 L/h/kg | 16.3 L/h/kg | 0.0012 mg/mL (≈ 3.72 µM) |  |  |
| CC(C)(C)OC(=O)N1CCCN1C(=O)c1cc2cc(Cl)ccc2[nH]1 |  | 2.83 L/h/kg | 41.2 L/h/kg |  |  |  |
| Cc1nnc(-c2ccc3occ(-c4ccc(S(C)=O)cc4)c3c2)o1 (stereo unspecified) | 1.98 | ≤ 0.284 L/h/kg | 3.69 L/h/kg | 0.0448 mg/mL (≈ 132 µM) | 0.0156 | 0.12 |
| COc1cc(CN[C@@H]2CCC[C@H]2Cc2cc(C)no2)ccc1OC(C)C |  | 4.01 L/h/kg | 143 L/h/kg |  |  |  |
| CN(Cc1nncn1C)C1CCN(c2ccccc2F)CC1 | 2.06 | ≤ 0.284 L/h/kg | 5.37 L/h/kg |  |  |  |
| N#Cc1ccc(COc2ccccc2C#N)cc1 |  |  |  | 0.00171 mg/mL (≈ 7.3 µM) |  |  |
| O=C(CN1CCCC1=O)N1CCc2nc3sccc3c(=O)n2CC1 |  | ≤ 0.284 L/h/kg | ≤ 0.64 L/h/kg |  |  |  |
| N#CCNC(=O)c1ccc(C#N)c(Cl)c1 |  | ≤ 0.284 L/h/kg | ≤ 0.64 L/h/kg |  |  |  |
| OCC1CN(c2nc3cc(F)ccc3o2)C1 | 0.704 | ≤ 0.284 L/h/kg | 1.03 L/h/kg |  |  |  |
| CN1N=C(SCc2ccc(Cl)cc2Cl)Sc2c1cnn(C)c2=O |  | 8.22 L/h/kg | 113 L/h/kg |  |  |  |
| Cc1nc(CN2CCC(CNC(=O)COc3ccccc3Cl)CC2)c[nH]1 | 5.32 | ≤ 0.284 L/h/kg | 3.49 L/h/kg |  |  |  |
| Cc1cc(-n2ccnc2)ccc1C(=O)O | 0.417 | ≤ 0.284 L/h/kg | ≤ 0.64 L/h/kg |  |  |  |
| N#Cc1ccc(COc2cccc(C3CCN(Cc4nc5ccc(C(=O)O)cc5n4C[C@@H]4CCO4)CC3)n2)c(F)c1 | 35.5 |  |  |  | 0.0253 | 0.0205 |
| Cc1cc(C(=O)NCC2CCN(c3ccc4ccccc4n3)CC2)cnc1C | 2.19 | 3.49 L/h/kg | 28.6 L/h/kg |  |  |  |
| NC(=O)c1ccccc1NC(=O)CN1CCCC(c2nc3ccccc3o2)C1 (stereo unspecified) | 8 | 7.53 L/h/kg | 49.6 L/h/kg | 0.01 mg/mL (≈ 26.4 µM) |  |  |
| CCc1cc(N(C)Cc2ccc(N)nc2)nc(C)n1 | 1.99 | ≤ 0.284 L/h/kg | ≤ 0.64 L/h/kg | 0.0365 mg/mL (≈ 142 µM) |  |  |
| O=C(NC[C@]1(O)CCN(Cc2ccsc2)C[C@H]1O)c1c[nH]cn1 | 0.366 | ≤ 0.284 L/h/kg | ≤ 0.64 L/h/kg |  |  |  |
| CCc1cccc(NC(=O)COC(=O)c2cnc(C)cn2)c1 |  |  |  | 0.0561 mg/mL (≈ 187 µM) |  |  |
| Cc1ccsc1-c1nc(CN(C)CCc2cn[nH]c2)c(C)o1 |  | 11.1 L/h/kg | 72.9 L/h/kg | 0.0557 mg/mL (≈ 176 µM) |  |  |
| CCCNC(=O)C1(Cc2ccccn2)CCOCC1 | 10.9 | ≤ 0.284 L/h/kg | ≤ 0.64 L/h/kg | 0.0853 mg/mL (≈ 325 µM) |  |  |
| Cc1nc2cc(=O)[nH]n2c(C)c1CC(=O)OC1CCCCC1 | 1.09 | 0.63 L/h/kg | 38.9 L/h/kg |  |  |  |
| CC(C)(C)c1nc(O)c2nnn(C3CCNCC3)c2n1 |  | ≤ 0.284 L/h/kg | ≤ 0.64 L/h/kg |  |  |  |
| O=C(NCc1ccc(F)cc1)C1CCN(C(=O)/C=C/c2ccccc2)CC1 | 6.17 | ≤ 0.284 L/h/kg | 7.98 L/h/kg | 0.00826 mg/mL (≈ 22.5 µM) |  |  |
| CCNc1ccnc(-c2cccc(C(=O)NCCCc3cnn(C)c3)c2)n1 | 39.2 | 1.57 L/h/kg | 38 L/h/kg |  |  |  |
| Cc1ccccc1-n1cc[nH]c(=O)c1=O | 1.26 | 0.306 L/h/kg | ≤ 0.64 L/h/kg | 0.0584 mg/mL (≈ 289 µM) |  |  |
| Cc1ccc(N2CCN(C(=O)c3c(C)nc4sccn34)CC2=O)cc1 | 6.72 | ≤ 0.284 L/h/kg | 1.94 L/h/kg | 0.0616 mg/mL (≈ 174 µM) |  |  |
| NC(=O)c1cnc(N2CCc3[nH]nc(C(F)(F)F)c3C2)c(Cl)c1 | 7.33 | ≤ 0.284 L/h/kg |  |  | 0.0968 |  |
| O=C(Nc1cc(Cl)ccc1Cl)c1cccc(N2CCCC2=O)c1 |  | 9.38 L/h/kg | 58.2 L/h/kg | 0.0348 mg/mL (≈ 99.7 µM) |  |  |

Results, then the compound that gave them:

| MDR1-MDCK efflux ratio | intrinsic clearance, human liver microsomes | intrinsic clearance, rat liver microsomes | aqueous solubility | fraction unbound, human plasma | fraction unbound, rat plasma | Structure (SMILES) |
| --- | --- | --- | --- | --- | --- | --- |
| 10.9 | ≤ 0.284 L/h/kg | 1.69 L/h/kg |  |  |  | COc1cn(-c2ccc(-n3cccn3)cc2F)nc(-c2ccnn2-c2ccccc2)c1=O |
| 3.49 | 3.24 L/h/kg | 118 L/h/kg | 0.0431 mg/mL (≈ 137 µM) |  |  | CN(Cc1nc(N)c2ccccc2n1)Cc1ccc(F)cc1F |
| 7.68 | ≤ 0.284 L/h/kg | 1.5 L/h/kg | 0.0432 mg/mL (≈ 147 µM) |  |  | Cc1cc(NC(=O)CCc2cnn(C)c2)c2ccccc2n1 |
| 0.734 | 5.35 L/h/kg | 79.3 L/h/kg | 0.0168 mg/mL (≈ 59.8 µM) |  |  | c1ccc(Cc2n[nH]c(CSc3ccccc3)n2)cc1 |
| 0.48 |  |  | 0.00015 mg/mL (≈ 0.543 µM) |  |  | COc1ccc2c(-c3ccccc3)cc3nnnn3c2c1 |
|  | 13.3 L/h/kg | 136 L/h/kg |  |  |  | Clc1ccc(CSc2nc(-c3ccccc3)cs2)cn1 |
| 2.75 | ≤ 0.284 L/h/kg | ≤ 0.64 L/h/kg | 0.0354 mg/mL (≈ 133 µM) |  |  | Cc1nc2ccccc2n1Cc1ccc(C(=O)O)cc1 |
| 0.861 | 2.91 L/h/kg | 36 L/h/kg |  |  |  | O=C(c1cc(-c2ccc(F)cc2)on1)N1CC[C@H](Oc2ccccc2F)[C@@H](O)CC1 |
| 0.434 | 0.702 L/h/kg | 44.8 L/h/kg | 0.0255 mg/mL (≈ 119 µM) |  |  | NCc1cccnc1OCc1ccccc1 |
| 0.929 | ≤ 0.284 L/h/kg | 1.86 L/h/kg |  |  |  | Cc1nnc2ncc(-c3cccc(-c4ccnn4C)c3)cn12 |
| 13.9 | ≤ 0.284 L/h/kg | 1.14 L/h/kg |  |  |  | NC(=O)c1cccc(Cn2cnc3c(oc4ccccc43)c2=O)c1 |
|  | 35.6 L/h/kg | 82.1 L/h/kg |  |  |  | COc1ccc(Cl)cc1N(CC(=O)Nc1ccccc1C(=O)NCc1ccccc1)S(C)(=O)=O |
| 0.557 | 13.2 L/h/kg | 90.4 L/h/kg | 0.0411 mg/mL (≈ 127 µM) |  |  | COc1ccccc1OC1CCN(Cc2ccccc2C#N)CC1 |
|  | 1.79 L/h/kg | 22.1 L/h/kg |  |  |  | COc1ccc2c(c1)C(=O)N(c1ccc(C)cc1)C(=O)C2 |
